Measurements from patent publication US20220202939A1, “PREPARATION FOR IMPROVING ACTIVITY AND/OR THERMAL STABILITY OF SUPEROXIDE DISMUTASE, AND APPLICATION THEREOF” (CHINA AGRICULTURAL UNIVERSITY, priority 2020, published 2022).

Tested on: superoxide dismutase (SOD)
Assay: Influence of small-molecule substances on SOD enzyme activity and thermal stability at 80° C.
Assay type: biochemical
Conditions: experimental group 1: 100 μL SOD solution (1×10^−4 mol/L) + 100 μL substance solution (1×10^−3 mol/L); water bath 80° C., 4 hours, enzyme activity every 20 minutes; vs SOD blank control; FIG. 1
Description: SOD solution: Mr(SOD)=37.8 kDa, 37.8 mg of SOD was weighed and dissolved in 10 mL of phosphate buffer to obtain a stock solution of CSOD=1×10^−4 mol/L.
Experimental group 1: 100 μL of the SOD solution was taken out and added to each of […] 10 mL centrifuge tubes, and then 100 μL of the solution of each of the vitamin C, the vitamin p, the catechin, the quercetin, the myricetin, the kaempherol, the ellagic acid, and the ferulic acid was added to each of the […] centrifuge tubes. Another 100 μL of the SOD solution was taken out as blank control. The centrifuge tubes and the blank control were placed in a water bath at 80° C., incubated for 4 hours, and detected for enzyme activity every 20 minutes. […]

Row | Compound | activity of the SOD | thermal stability of the SOD
1 | O=c1oc2c(O)c(O)cc3c(=O)oc4c(O)c(O)cc1c4c23 [ellagic acid] | improve the activity of the SOD | significantly improve the thermal stability of the SOD
2 | O=c1c(O)c(-c2cc(O)c(O)c(O)c2)oc2cc(O)cc(O)c12 [myricetin] | improve the activity of the SOD | significantly improve the thermal stability of the SOD
3 | O=c1c(O)c(-c2ccc(O)cc2)oc2cc(O)cc(O)c12 [kaempherol] | improve the activity of the SOD | significantly improve the thermal stability of the SOD
4 | catechin | improve the activity of the SOD | significantly improve the thermal stability of the SOD
5 | Cc1ncc(C[n+]2csc(CCO)c2C)c(N)n1 [Vb1, vitamin B1, reference compound] | fails to improve the activity and thermal stability of SOD enzymes | fails to improve the activity and thermal stability of SOD enzymes
6 | COc1cc(/C=C/C(=O)O)ccc1O [ferulic acid] | improve the activity of the SOD | significantly improve the thermal stability of the SOD

The next lines start with results.

Row | activity of the SOD | Compound | thermal stability of the SOD
7 | improve the activity of the SOD | O=C1O[C@H]([C@@H](O)CO)C(O)=C1O [vitamin C] | significantly improve the thermal stability of the SOD
8 | improve the activity of the SOD | vitamin P | significantly improve the thermal stability of the SOD
9 | improve the activity of the SOD | O=c1c(O)c(-c2ccc(O)c(O)c2)oc2cc(O)cc(O)c12 [quercetin] | significantly improve the thermal stability of the SOD
